For orientation: IC50 means the point on the concentration scale where inhibition reaches its midpoint. As a reminder, the half-life is the time in which the quantity being followed falls by half. A high value points to slow decline.

Experimental findings from patent US20250388602A1 (Genase Therapeutics B.V., priority 2022, published 2025) are described below.

For series [1], the target named is recombinant human DHODH (Homo sapiens (Human), UniProt Q02127). The series is described as follows: DHODH enzyme assay (Assay A), DCIP absorbance. The class given is biochemical. How it is done: Inhibition of human dihydroorotate dehydrogenase (DHODH) by example compounds as described herein was determined using one of two assays as described below.
Chain of recombinant human DHODH (Q02127 whole entry): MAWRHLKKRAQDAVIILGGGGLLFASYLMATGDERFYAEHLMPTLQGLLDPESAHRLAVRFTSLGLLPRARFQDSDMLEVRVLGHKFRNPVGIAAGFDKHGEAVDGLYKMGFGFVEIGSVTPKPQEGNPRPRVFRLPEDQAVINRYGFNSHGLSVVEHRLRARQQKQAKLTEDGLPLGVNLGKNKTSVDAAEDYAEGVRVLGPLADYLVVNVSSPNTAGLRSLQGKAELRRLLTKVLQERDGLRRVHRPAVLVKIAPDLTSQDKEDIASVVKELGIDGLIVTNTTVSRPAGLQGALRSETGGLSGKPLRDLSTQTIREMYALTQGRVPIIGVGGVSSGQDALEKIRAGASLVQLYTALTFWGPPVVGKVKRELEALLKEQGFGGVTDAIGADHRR
DHODH enzyme assays were performed with 6 nM recombinant human DHODH (purified essentially as described by Walse et al., Biochemistry, 47, 8929-8936 (2008)). The reaction mixture consisted of 1 mM DL-dihydroorotic acid (#D7003, Sigma-Aldrich), 100 μM 3,4-dimethoxy-5-methyl-p-benzoquinone (#D9150, Sigma-Aldrich), and 100 μM 2,6-dichlorophenolindophenol sodium salt (DCIP) (#D1878, Sigma-Aldrich) in enzyme buffer (50 mM Tris-HCl pH 8.0, 0.1% Triton X-100, 150 mM KCl). A stock solution of 20 mM DCIP was prepared in enzyme buffer and filtered through Whatman paper just before use. Reactions were performed in a total volume of 100 μL, consisting of 1 μL of compound, 49 μL of enzyme and 50 μL of reaction mixture. Loss in absorbance by chromogen DCIP was measured at 595 nm following a 70 minute incubation at 32° C.

The subject of series [2] is MOLM-13 cells. Put plainly: MOLM-13 cell viability (Assay B), Cell Titer-Glo. As to conditions: for IC50: Homo sapiens, read-out: IC50 MOLM13 inhibition activity. The class given is cell-based. Here is the method: MOLM-13 cells (an acute myeloid leukemia cell line) were plated in RPMI supplied with 10% FBS and 1% Pen/Strep in 384-well plates at 1,000 cells per well on day 0. On day 1, treatment of the cells with compound (concentration range 10E-5 and 6E-12 M) was initiated in the presence or absence of 100 μM uridine. After 72 hours incubation of the cells with or without test compound, the number of viable cells per well was assessed by Cell Titer-Glo Luminescent Cell Viability Assay (Promega, Madison, WI, USA). […] Each condition was tested in duplicate and the potency of test compounds was determined from two independent experiments.
(In ATP-based viability assays light output follows the ATP content of the culture.)

Series [3] in a line: in vitro. As to conditions: for HLM % remaining: % remaining at 60 min, 1 μM; for half-life at 1 μM: both, human. Here is the method: Human Liver Microsomal metabolic stability: The microsomal metabolic stability assay utilized pooled human liver microsomes (mixed gender, BD Gentest), with supplemented cofactors NADPH and UDPGA (Solarbio S&T Co., LTD). Two separate experiments were performed as follows: • a) With cofactors (NADPH & UDPGA): 25 μL of 10 mM NADPH and 25 μL of 20 mM UDPGA were added to 197.5 μL of reaction solution (phosphate buffer (final concentration in assay 100 mM), MgCl2 (final concentration in assay (5 mM)), alamethacin (final concentration in assay 0.025 mg/mL) and microsomes (final concentration in assay 0.5 mg/mL). • b) Without cofactors (NADPH & UDPGA): 50 μL of H2O was added to 197.5 μL of reaction solution.
The mixture was pre-warmed at 37° C. for 10 minutes. The reaction was started with the addition of 2.5 μL of 100 μM control compound or test compound solutions. Diclofenac was used as positive control in this study. The final concentration of control compound and test compounds was 1 μM. Aliquots of 25 μL were taken from the reaction solution at 0.5, 5, 15, 30 and 60 minutes. The reaction was stopped by the addition of 5 volumes of cold acetonitrile containing internal standards. Samples were centrifuged at 3,220 g for 40 minutes. An aliquot of 100 μL of the supernatant was mixed with 100 μL of ultra-pure H2O and then used for LC-MS/MS analysis. Peak areas were determined from extracted ion chromatograms. Percent parent remaining was calculated from the area ratio of test compound. The slope value was determined by linear regression of the natural logarithm of percent parent remaining versus incubation time curve.
(§1) Peak areas were determined from extracted ion chromatograms to determine the in vitro half-life (t½) of parent compound by regression analysis of the percent parent disappearance vs. time curve. The in vitro half-life (in vitro t½) was determined from the slope value (in vitro t½=−0.693/k). All calculations were carried out using Microsoft Excel.

Series [4] is described as follows: in vitro. The settings on record: for hHEPs % remaining: 1 μM. Here is the method: Human Hepatocyte metabolic stability: Human hepatocytes (X008000, BioIVT) were freshly thawed prior to the incubations with test compound. Hepatocytes were transferred to 50 mL conical tubes and centrifuged 10 min at 100 g. Thawing medium was removed and replaced by preheated (37° C.) incubation medium (William's E Medium supplemented with GlutaMAX), to yield a hepatocyte density ˜1.5×10^6 cells/mL. Cell viability was determined using AO/PI staining and hepatocytes were diluted using incubation medium to a working density of 0.5×10^6 viable cells/mL. 198 μL of hepatocytes were added into each well of a 96-well plate and placed in the incubator to allow the hepatocytes to warm for 10 minutes. 2 μL test compound or positive control was placed into respective wells of the 96-well plate (final concentration test compound 1 μM) to start the reaction. The plate was returned to the incubator and 25 μL aliquots of the well contents were removed at time points of 0, 15, 30, 60, 90 and 120 minutes. The aliquots were mixed with 6 volumes (150 μL) of acetonitrile containing internal standards (100 nM alprazolam, 200 nM caffeine, and 100 nM tolbutamide) to terminate the reaction. The plate was centrifuged for 20 minutes at 3,200 g. Aliquots of 150 μL of the supernatants were used for LC/MS/MS analysis. All incubations were performed in duplicate.
as §1

Setting [5] is: bins ≥10 nM-<100 nM and <10 nM, read-out: IC50 DHODH inhibition activity.
Setting [6] is: MOLM-13, 72 hours, bins ≥10 nM-<100 nM and <10 nM.

Where two headings read alike, the source gives them in different places.

With `O=C(N[C@@H]1COCc2c1cnn2-c1ccccc1F)c1ncn2c1CCCC2` (single isomer, unassigned) [Ex-3], the half-maximal inhibitory concentration (IC50) in series [1] (setting [5]) and in series [2] (setting [6]) was 10 to 100 nM each time. In series [3], the HLM % remaining is 92%. Moreover, the half-life at 1 μM in series [3] (pooled liver microsomes) was above 6.08 h; in series [4] (human, hepatocytes) it was 9.97 h. The compound further gave a hHEPs % remaining in series [4] (human, hepatocytes, 2 h) of 87%.

Consider `O=C(N[C@@H]1COCc2c1cnn2-c1ccccc1F)c1ncc2n1CCCC2` (single isomer, unassigned) [Ex-6], for which the IC50 in series [1] (setting [5]) and in series [2] (setting [6]) was 10 to 100 nM in each case. The compound further yielded an HLM % remaining in series [3] of 85%. The half-life at 1 μM turned out to be 4.75 h in series [3] (pooled liver microsomes) and 4.9 h in series [4] (human, hepatocytes). This compound registered a hHEPs % remaining in series [4] (human, hepatocytes, 2 h) of 87%.

As for `O=C(N[C@H]1COCc2c1cnn2-c1c(F)cccc1Cl)c1ncn2c1CCCC2` (single isomer, unassigned) [Ex-10], in series [3], the HLM % remaining is 100%. Besides, the half-life at 1 μM in series [3] (pooled liver microsomes) is above 6.08 h; in series [4] (human, hepatocytes) it was above 10 h. The compound further displayed a hHEPs % remaining in series [4] (% remaining at 120 min) of 100%.

With `O=C(N[C@@H]1COCc2c1cnn2-c1c(F)cccc1Cl)c1ncn2c1CCCC2` (single isomer, unassigned) [Ex-11], the IC50 in series [1] (setting [5]) and in series [2] (setting [6]) was below 10 nM throughout. Moreover, the “MOLM13 cell growth and/or viability (FIG. 2)” value in series [2] (absence of uridine) is on record as “reduce MOLM13 cell growth and/or viability”. Besides, in series [2] (presence of 100 μM uridine), the “effect on MOLM13 cell growth and/or viability on addition of excess uridine (FIG. 2)” value is recorded as “largely prevented”. Also, the HLM % remaining in series [3] is on record as 93%. For the same compound, the half-life at 1 μM in series [3] (pooled liver microsomes) is above 6.08 h; in series [4] (human, hepatocytes) it was above 10 h. For the same compound, the hHEPs % remaining in series [4] (% remaining at 120 min) was determined as 90%.

Turning to `O=C(N[C@@H]1COCc2c1cnn2-c1c(Cl)cccc1Cl)c1ncn2c1CCCC2` (single isomer, unassigned) [Ex-13], the IC50 in series [1] (setting [5]) and in series [2] (setting [6]) was below 10 nM each time. Also, the HLM % remaining in series [3] worked out at 88%. Further, the half-life at 1 μM in series [3] (pooled liver microsomes) is above 6.08 h; in series [4] (human, hepatocytes), above 10 h. In addition, the hHEPs % remaining in series [4] (% remaining at 120 min) was 95%.

`O=C(N[C@@H]1COCc2c1cnn2-c1ccccc1F)c1n[nH]c2c1CCCC2` [Ex-42, (S)—N-(1-(2-fluorophenyl)-1,4,5,7-tetrahydropyrano[3,4-c]pyrazol-4-yl)-4,5,6,7-tetrahydro-1H-indazole-3-carboxamide] returned an HLM % remaining in series [3] of 85%. The half-life at 1 μM in series [3] (pooled liver microsomes) turned out to be 3.93 h; in series [4] (human, hepatocytes), 5.43 h. The compound further returned a hHEPs % remaining in series [4] (% remaining at 120 min) of 76%.

As for `O=C(N[C@@H]1COCc2c1cnn2-c1ccccc1F)c1noc2c1CCCC2` [Ex-43, (S)—N-(1-(2-fluorophenyl)-1,4,5,7-tetrahydropyrano[3,4-c]pyrazol-4-yl)-4,5,6,7-tetrahydrobenzo[d]isoxazole-3-carboxamide], the HLM % remaining in series [3] was determined as 92%. The half-life at 1 μM in series [3] (pooled liver microsomes) is above 6.08 h; in series [4] (human, hepatocytes), above 10 h. The hHEPs % remaining in series [4] (% remaining at 120 min) worked out at 93%.

Regarding `CCc1c(C(=O)N[C@@H]2COCc3c2cnn3-c2ccccc2F)n[nH]c1C` [Ex-44, (S)-4-ethyl-N-(1-(2-fluorophenyl)-1,4,5,7-tetrahydropyrano[3,4-c]pyrazol-4-yl)-5-methyl-1H-pyrazole-3-carboxamide], in series [3], the HLM % remaining is 92%. Besides, the half-life at 1 μM in series [3] (pooled human liver microsomes) is above 6.08 h; in series [4] (human, hepatocytes), 9.35 h.

In series [3], `Cc1cnc(C(=O)N[C@@H]2COCc3c2cnn3-c2ccccc2F)cc1C` [Ex-45, (S)—N-(1-(2-fluorophenyl)-1,4,5,7-tetrahydropyrano[3,4-c]pyrazol-4-yl)-4,5-dimethylpicolinamide] came in with an HLM % remaining of 88%. The half-life at 1 μM came out at 4.57 h in series [3] (pooled liver microsomes) and 4.77 h in series [4] (human, hepatocytes). In series [4] (% remaining at 120 min), this compound registered a hHEPs % remaining of 72%.

As to `COCCOc1cccc(-n2ncc3c2COC[C@H]3NC(=O)c2ncn3c2CCCC3)c1Cl` [Ex-67, (S)—N-(1-(2-chloro-3-(2-methoxyethoxy)phenyl)-1,4,5,7-tetrahydropyrano[3,4-c]pyrazol-4-yl)-5,6,7,8-tetrahydroimidazo[1,5-a]pyridine-1-carboxamide], the half-inhibitory concentration (IC50) in series [1] (read-out: IC50 DHODH inhibition activity) and in series [2] (setting [6]) was below 10 nM throughout.

`O=C(N[C@@H]1COCc2c1cnn2-c1cccc(OCCO)c1Cl)c1ncn2c1CCCC2` [Ex-68, (S)—N-(1-(2-chloro-3-(2-hydroxyethoxy)phenyl)-1,4,5,7-tetrahydropyrano[3,4-c]pyrazol-4-yl)-5,6,7,8-tetrahydroimidazo[1,5-a]pyridine-1-carboxamide]: the IC50 in series [1] fell in the range of 10 to 100 nM; in series [2] (MOLM-13, 72 h) it was 10 to 100 nM.

On to `O=C(N[C@@H]1COCc2c1cnn2-c1cccc(C(=O)N2CCCC2)c1Cl)c1ncn2c1CCCC2` [Ex-71, (S)—N-(1-(2-chloro-3-(pyrrolidine-1-carbonyl)phenyl)-1,4,5,7-tetrahydropyrano[3,4-c]pyrazol-4-yl)-5,6,7,8-tetrahydroimidazo[1,5-a]pyridine-1-carboxamide], for which the IC50 in series [1] (setting [5]) and in series [2] (setting [6]) was 10 to 100 nM each time.

For `O=C(N[C@@H]1COCc2c1cnn2-c1cccc(C(=O)N2CCCCC2)c1Cl)c1ncn2c1CCCC2` [Ex-72, (S)—N-(1-(2-chloro-3-(piperidine-1-carbonyl)phenyl)-1,4,5,7-tetrahydropyrano[3,4-c]pyrazol-4-yl)-5,6,7,8-tetrahydroimidazo[1,5-a]pyridine-1-carboxamide], the IC50 in series [1] (setting [5]) and in series [2] (setting [6]) was below 10 nM in each case.

As to `O=C(N[C@@H]1COCc2c1cnn2-c1cccc(C(=O)N2CCOCC2)c1Cl)c1ncn2c1CCCC2` [Ex-73, (S)—N-(1-(2-chloro-3-(morpholine-4-carbonyl)phenyl)-1,4,5,7-tetrahydropyrano[3,4-c]pyrazol-4-yl)-5,6,7,8-tetrahydroimidazo[1,5-a]pyridine-1-carboxamide], the half-inhibitory concentration (IC50) in series [1] and in series [2] (setting [6]) was 10 to 100 nM throughout.

In the case of `CCN(CC)C(=O)c1cccc(-n2ncc3c2COC[C@H]3NC(=O)c2ncn3c2CCCC3)c1Cl` [Ex-74, (S)—N-(1-(2-chloro-3-(diethylcarbamoyl)phenyl)-1,4,5,7-tetrahydropyrano[3,4-c]pyrazol-4-yl)-5,6,7,8-tetrahydroimidazo[1,5-a]pyridine-1-carboxamide], the 50% inhibitory concentration (IC50) in series [1] (setting [5]) and in series [2] (setting [6]) was 10 to 100 nM in each case.
